Test results taken from PubChem BioAssay AID463199 (Broad Institute, 2010).
Calls of active or inactive are those of the source.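 How the source made its calls: active means AC50, the dose giving half-maximal effect, exceeds a fixed cutoff for a compound that rescues yeast growth under heat; inactive means the rest, inconclusive results apart.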

Tested on: S. cerevisiae Burl-1 ts mutant growth, BacTiter-Glo, 38.5C 24 h
Test: growth induction of Burl-1 ts yeast mutant, dose response, counter-screen for SUMOylation pathway inhibitor project, whole organism, S. cerevisiae, luminescence (AID 463199)

| SMILES | AC50 |
| --- | --- |
| O=S(=O)(c1ccccc1)N1CCN(c2nc3ccccc3s2)CC1 | > 42 µM (inactive) |
| Cc1ccc(S(=O)(=O)NN2C(=O)c3ccccc3NC2c2ccccc2F)cc1 (stereo not given) | > 42 µM (inactive) |
| COC(=O)c1ccccc1SC(CC(=O)c1ccccc1)c1ccc(F)cc1 (stereo not given) | > 42 µM (inactive) |
| C/C=C\C=C/C(=O)Nc1cccc(C2=NOC3(C2)C[C@@H](C(N)=O)N(C(=O)c2ccccc2)C3)c1 (stereo not given in full) | > 42 µM (inactive) |
| CN(CC(=O)Nc1sccc1C#N)Cc1ccccc1 | > 42 µM (inactive) |
| N=c1c2c(n(Cc3ccc(Cl)c(Cl)c3)c3c1CCC3)CCCC2 | > 42 µM (inactive) |
| Cc1c(Cl)cccc1NC(=S)NCCCN(C)C | > 42 µM (inactive) |
| Cc1ccccc1NC1=NCCCS1 | > 42 µM (inactive) |
| Nc1cc(C(=O)OCC(=O)N2CCOCC2)ccc1Cl | > 42 µM (inactive) |
| COc1ccccc1-n1nnnc1SCC(=O)Nc1ccc(C)c(N)c1 | > 42 µM (inactive) |
| O=C(CN1CCN(Cc2ccc(F)cc2)CC1)NCc1ccccc1 | > 42 µM (inactive) |
| CCCCOc1ccc(CSC(=N)N)cc1Cl | > 42 µM (inactive) |
| COCC(=O)n1nc(NCc2ccc(OC)cc2)nc1NCc1ccc(OC)cc1 | > 42 µM (inactive) |
| Cc1ccccc1C(=O)NN(C)c1nc2ccccc2nc1C(F)(F)F | > 42 µM (inactive) |
| CC(=O)N(C(C)=O)c1c(C#N)c(C)n(-c2ccccc2)c1C(=O)c1ccccc1 | > 42 µM (inactive) |
| CN(C)c1ccc(NS(=O)(=O)c2cccc(Cl)c2)cc1 | > 42 µM (inactive) |
| Cc1ccc(O)c(C(=O)CC(=O)c2cccc(F)c2)c1 | 20.1 µM |
| CCN(CC)S(=O)(=O)c1ccc(NC(=O)C(C)N(c2ccccc2)S(C)(=O)=O)cc1 (stereo not given) | > 42 µM (inactive) |
| O=C(O)c1ccc(Cl)c(NCc2cccs2)c1 | > 42 µM (inactive) |
| COc1ccc(-c2csc(NC(=O)C3CSC4(C)CCC(=O)N34)n2)cc1 (stereo not given) | > 42 µM (inactive) |
| COCCNCc1ccccc1 | > 42 µM (inactive) |
| CC(=O)c1ccc(N=C2SCCCN2C(=O)C2CCCC2)cc1 | > 42 µM (inactive) |
| CC1(C)CCC(=O)N2CC[C@H]3C[C@H](OC(=O)Nc4ccc(Br)cc4)C[C@@H]1[C@H]32 | > 42 µM (inactive) |
| CSc1cc(C)c(OCC(=O)Nc2c(C)nn(C)c2C)c(C)c1 | > 42 µM (inactive) |
| O=C(O)C1CCCCC1C(=O)Nc1ccc(S(=O)(=O)N2CCCC2)cc1 (stereo not given) | > 42 µM (inactive) |

| SMILES | AC50 |
| --- | --- |
| COC(=O)c1ccncc1C(=O)Nc1ccc(Oc2ncc(C(F)(F)F)cc2Cl)cc1 | > 42 µM (inactive) |
| COc1cccc(NC(=O)c2nn(C34CC5CC(CC(C5)C3)C4)cc2[N+](=O)[O-])c1 | > 42 µM (inactive) |
| O=C(CSc1nc2ncccc2[nH]1)NC1CCCCC1 | > 42 µM (inactive) |
| COc1ccc(OCC(=O)Nc2ccc(C)cc2)cc1 | > 42 µM (inactive) |
| COC/C=C/C1=CC2=CC(=O)C(C)(OC(=O)c3cnc4ccccc4n3)C(=O)C2=CN1CCOC (stereo not given) | > 42 µM (inactive) |
| Cc1cc(C)c2nc(-c3cccnc3)cc(C(=O)Nc3ccc(S(=O)(=O)Nc4onc(C)c4C)cc3)c2c1 | > 42 µM (inactive) |
| COc1ccc2[nH]c(C(=O)N/N=C/c3ccccc3OC)cc2c1 | > 42 µM (inactive) |
| Cc1ccc(-c2nc(-c3cccnc3)sc2CC(=O)O)cc1 | > 42 µM (inactive) |
| CCOC(=O)CCN(c1ccccc1)S(=O)(=O)c1ccc(-c2ccc(=O)[nH]n2)s1 | > 42 µM (inactive) |
| CC(C)C(=O)NCCSc1c[nH]c2ccccc12 | > 42 µM (inactive) |
| COc1ccc(N2CCN(C(=O)CNC(=O)Cc3ccc(Cl)cc3)CC2)cc1 | > 42 µM (inactive) |
| O=c1[nH]cnc2ccc([N+](=O)[O-])cc12 | > 42 µM (inactive) |
| CC(=O)N(C)c1ccc(N2CCOCC2)c2c1C(=O)c1ccccc1C2=O | > 42 µM (inactive) |
| COCC(=O)n1nc(-c2ccccc2)nc1NCc1ccc(N(C)C)cc1 | > 42 µM (inactive) |
| O=C(COc1cnc2ccccc2n1)NCCC1=CCCCC1 | > 42 µM (inactive) |
| Cn1c(=O)c2c(ncn2CC(=O)N2CCCCCC2)n(C)c1=O | > 42 µM (inactive) |
| O=C(C1CCN(C2CC(=O)N(c3cccc(Cl)c3)C2=O)CC1)N1CCCC1 (stereo not given) | > 42 µM (inactive) |
| COc1cc2c(cc1NC(=O)c1cccnc1)oc1ccccc12 | > 42 µM (inactive) |
| CCn1c(CSCc2ccc(F)cc2)nnc1SCC(=O)NCc1ccccc1 | > 42 µM (inactive) |
| COc1ccccc1CC(=O)N1CCN(S(=O)(=O)c2ccccc2)CC1 | > 42 µM (inactive) |
| CC(=O)N1N=C(c2ccc(C(C)(C)C)cc2)OC1(C)C | > 42 µM (inactive) |
| CCOc1ccc(/C=N/NC(=O)c2ccc(CSc3nc4ccccc4[nH]3)cc2)cc1 | > 42 µM (inactive) |
| CN(C)S(=O)(=O)c1cccc(NC(=O)C(c2ccccc2)c2ccccc2)c1 | > 42 µM (inactive) |
| OCC1(Cc2cccc(Cl)c2)CCCN(Cc2ccc(F)c(F)c2)C1 (stereo not given) | > 42 µM (inactive) |
| COc1cc(C(=O)Oc2cccnc2)cc(OC)c1OC | > 42 µM (inactive) |
